According to patent publication EP3443956A1, “A COMPOUND INCREASING ENDOCANNABINOIDS CONCENTRATION IN A SUBJECT FOR USE FOR PREVENTING AND/OR TREATING A SOCIAL BEHAVIOR DISORDER” (INSTITUT NATIONAL DE LA SANTE ET DE LA RECHERCHE MEDICALE …, priority 2017, dated 2019):
Like-named read-outs stand apart in the source and are kept apart here.

Columns and labels:
[1] = system: adult rats; type: in vivo, rat
Description: Wistar female rats (Charles River, France) weighing 250-280 g were housed at constant room temperature (20 ± 1°C) and humidity (60%), and exposed to a light cycle of 12 h/day (08:00 a.m. to 08:00 p.m.), with food and water available ad libitum. For mating, pairs of females were placed with single male rats in the late afternoon. Vaginal smears were taken the following morning at 09:00 a.m. The day on which sperm was present was designated as the day 0 of gestation (GD 0).
(§1) Treatment was performed daily with the CB1 R receptor agonist WIN55,212-2 (0.5 mg/kg) or Delta9-Tetrahydrocannabinol (THC, 5 mg/kg) or their respective vehicles from GD 5 to GD 20. WIN55,212-2 was suspended in 5% DMSO, 5% cremophor and saline, and injected s.c. at a volume of 1 ml/kg. Control dams (Sham group) received a similar volume injection of vehicle solution. THC was suspended in 5% Ethanol, 5% cremophor and saline, and injected s.c. at a volume of 1 ml/kg.
(§2) Pups were weaned at 21 days of age. For behavioral and electrophysiological experiments male and female rats were tested at adulthood (postnatal day 90-120).
The test was performed in a sound attenuated chamber under dim light conditions. The testing arena consisted of a Plexiglas cage measuring 45 × 45 cm, with 2 cm of wood shavings covering the floor. Social behavior was assessed as previously described (Trezza et al., 2012).
Briefly, adult rats were individually habituated to the test cage for 5 min (adult rats) on each of the 2 days prior to testing. Before testing, adult animals were socially isolated for 24 h, respectively, to enhance their social motivation and thus facilitate the expression of social behaviors during testing. Drug treatments were counterbalanced so that cage mates were allocated to different treatment groups. […] Behavior was assessed per pair of animals and analyzed by a trained observer who was unaware of treatment condition using the Ethovision XT video tracking software (Noldus, Wageningen, The Netherlands).
The test consisted of placing two similarly treated animals into the test cage for 10 min (adult rats). In rats, a bout of social play behavior starts with one rat soliciting ('pouncing') another animal, by attempting to nose or rub the nape of its neck. The animal that is pounced upon can respond in different ways. If the animal that is pounced upon fully rotates to its dorsal surface, 'pinning' is the result, i.e., one animal lying with its dorsal surface on the floor with the other animal standing over it. From this position, the supine animal can initiate another play bout, by trying to gain access to the other animal's neck. Thus, during social play, pouncing is considered an index of play solicitation, while pinning can be regarded as the terminal component of a single play bout as well as a releaser of a prolonged play bout. Pinning and pouncing frequencies can be easily quantified and they are considered to be the most characteristic parameters of social play behavior in rats. During the social encounter, animals may also display social behaviors not directly associated with play, such as sniffing or grooming the partner's body. A pair of rats was considered as one experimental unit. […]

[2] = system: eCB-LTD of excitatory synapses onto layer 5 mPFC pyramidal neurons; test: Field potential recordings of eCB-LTD in mPFC slices; set-up: species or system rat
Description: as §1, §2
Adult male and female rats were anesthetized with isoflurane and killed as previously described (Martin and Manzoni, 2014). The brain was sliced (300 µm) in the coronal plane with a vibratome (Integraslice, Campden Instruments) in a sucrose-based solution at 4°C (in mm as follows: 87 NaCl, 75 sucrose, 25 glucose, 2.5 KCI, 4 MgCl2, 0.5 CaCl2, 23 NaHCO3 and 1.25 NaH2PO4). Immediately after cutting, slices containing the medial prefrontal cortex (PFC) or accumbens were stored for 1 h at 32°C in a low calcium ACSF that contained (in mm) as follows: 130 NaCl, 11 glucose, 2.5 KCI, 2.4 MgCl2, 1.2 CaCl2, 23 NaHCO3, 1.2 NaH2PO4, and were equilibrated with 95% 02/5% CO2 and then at room temperature until the time of recording.
Field potential recordings were made in coronal slices containing the mPFC or the accumbens as previously described (Robbe et al., 2002). During the recording, slices were placed in the recording chamber and superfused at 2 ml/min with either low Ca2+ ACSF for mPFC or normal ACSF for the accumbens. All experiments were done at 32°C or room temperature for mPFC and accumbens, respectively. The superfusion medium contained picrotoxin (100 µM) to block GABA Type A (GABA-A) receptors. All drugs were added at the final concentration to the superfusion medium.
For extracellular field experiments, the recording pipette was filled with ACSF.
Both fEPSP area and amplitude were analyzed. Stimulation was performed with a glass electrode filled with ACSF and the stimulus intensity was adjusted ∼60% of maximal intensity after performing an input-output curve (baseline EPSC amplitudes ranged between 50 and 150 pA). Stimulation frequency was set at 0.1 Hz.
The magnitude of plasticity was calculated 38-40 min after induction as percentage of baseline responses. Statistical analysis of data was performed with Prism (GraphPad Software) using tests indicated in the main text after outlier subtraction. All values are given as mean ± SEM, and statistical significance was set at p < 0.05.

[3] = system: eCB-LTD of excitatory synapses onto medium spiny neurons (MSNs); test: Field potential recordings of eCB-LTD in accumbens slices
[4] = Sham adult female rats, capsazepine 5 mg/Kg i.p., 30 min before testing

Oc1cc2c(cc1O)CN(C(=S)NCCc1ccc(Cl)cc1)CCC2 [capsazepine, N-[2-(4-Chlorophenyl)ethyl]-1,3,4,5-tetrahydro-7,8-dihydroxy-2H-2-benzazepine-2-carbothioamide]
frequency of social interaction [1, 4]: reduced | total time of social interaction [1, 4]: reduced | effect on the curating effects of URB597 on social interaction ([1]; adult rats exposed in utero to WIN55,212-2, capsazepine with URB597 0.1 mg/kg i.p.): did not block the curating effects of URB597 | effect on LTD in mPFC ([2]; Sham adult female rats, slices preincubated for 45 min in 10 µM capsazepine): completely blocked LTD

Cc1c(C(=O)c2cccc3ccccc23)c2cccc3c2n1[C@H](CN1CCOCC1)CO3 [WIN55,212-2]
distance travelled during the test ([1]; rat, in vivo): 3779 ± 228.8 cm | contact with congeners (total frequency of social interaction) ([1]; rat, in vivo, sc): had less contact with their congeners | time in social interactions ([1]; rat, in vivo, sc): spent less time in social interactions | total frequency of social interaction ([1]; rat, in vivo, sc): no difference | total time of social interaction ([1]; rat, in vivo, sc): no difference | eCB-LTD in accumbens [3]: robust eCB-LTD

NC(=O)c1cccc(-c2cccc(OC(=O)NC3CCCCC3)c2)c1 [URB597, (3'-(aminocarbonyl)[1,1'-biphenyl]-3-yl)-cyclohexylcarbamate]
social interaction (social deficits) ([1]; adult male rats exposed in utero to WIN55,212-2, URB597 0.1 mg/kg i.p., 2 h before testing): ameliorated social deficits | restoration of eCB-LTD in the PFC ([2]; adult male rats exposed in utero to WIN55,212-2, slices incubated with URB597 2 µM for 45-90 min before LTD induction): sufficient to restore eCB-LTD

N#Cc1cc2[nH]c(=O)c(=O)[nH]c2cc1[N+](=O)[O-] [CNQX]
effect on the field EPSP (fEPSP) ([2]; CNQX 20 µM at the end of the experiments, data not shown): specifically blocked the synaptic component without altering the nonsynaptic component

Cc1c(C(=O)NN2CCCCC2)nn(-c2ccc(Cl)cc2Cl)c1-c1ccc(Cl)cc1 [SR141716, 5-(4-chloro-phenyl)-1-(2,4-dichlorophenyl)-4-methyl-N-1-piperidinyl-1H-pyrazole-3-carboxamide]
effect on the curating actions of URB597 on social interaction ([1]; adult male rats exposed in utero to WIN55,212-2, SR141716 1 mg/kg i.p. 30 min before URB597 0.1 mg/Kg i.p.): prevented the curating actions of URB597 | effect of the antagonist by itself on social interaction ([1]; adult rats, SR141716 1 mg/kg i.p.): did not induce effects by itself | effect on LTD in mPFC ([2]; Sham adult male rats, slices preincubated for 45 min in 5 µM SR141716): completely blocked LTD | effect on LTD of evoked EPSPs in mPFC ([2]; adult females exposed in utero to WIN55,212-2, slices preincubated for 45 min in 5 µM SR141716): not mediated by CB1 R receptors | block of the URB597 rescue of eCB-LTD ([2]; adult male rats exposed in utero to WIN55,212-2, URB597 2 µM plus SR141716 5 µM): blocked the URB597 rescue
